Source: US10285979B2, “Breast cancer therapeutic agent containing 5′-hydroxy-5-nitro-indirubin-3′-oxime as active ingredient” (ANYGEN CO., LTD., priority 2016, dated 2019)
Like-named read-outs stand apart in the source and are kept apart here.

Experiments:
HL-60(TB) = details: 10 μM; leukemia cell line HL-60(TB)
[1] = tested on: MCF-7 ER positive breast cancer cells
Source text: (§1) The tumor volume and shape in the nude mouse have been observed for 24 days.

[2] = tested on: MDA-MB-231 breast cancer cell line; details: flow cytometry
Source text: (§2) Further, we have investigated the cell cycles of MDA-MB-231 breast cancer cell line through Flow cytometry analysis.

cyclin B1 expression = details: western blot; G2/M phase
Source text: as §2

cancer cell = details: DAPI staining
Source text: Further, we have examined the apoptotic body stained with DAPI using a fluorescence microscope to investigate the induction of apoptosis by AGM-130.

[3] = tested on: HCT-116 colorectal cancer cells; details: 10 mg/kg intraperitoneally every other day
Experimental: The tumor has been grown after injecting HCT-116 colorectal cancer cells (10×10^6 cells/0.1 ml of non-serum matrigel medium) to the nude mouse.
as §1

[4] = tested on: Imatinib-resistant K562 cells; details: in vitro and in vivo systems; cited from earlier work
[5] = tested on: MDA-MB-231 triple negative breast cancer cells
Source text: After implanting MDA-MB-231 triple negative breast cancer cells to the nude mouse, the tumor has been grown to the 200 mm^3 volume.
as §1

[6] = 3 mg/kg intravenously once a week, day 0
[7] = 3 mg/kg intravenously once a week, day 3
[8] = 3 mg/kg intravenously once a week, day 6
[9] = 3 mg/kg intravenously once a week, day 9
[10] = 3 mg/kg intravenously once a week, day 12
[11] = 3 mg/kg intravenously once a week, day 15
[12] = 3 mg/kg intravenously once a week, day 18
[13] = 3 mg/kg intravenously once a week, day 21
[14] = 3 mg/kg intravenously once a week, day 24
[15] = 7 mg/kg intravenously once a week, day 0
[16] = 7 mg/kg intravenously once a week, day 3
[17] = 7 mg/kg intravenously once a week, day 6
[18] = 7 mg/kg intravenously once a week, day 9
[19] = 7 mg/kg intravenously once a week, day 12
[20] = 7 mg/kg intravenously once a week, day 15
[21] = 7 mg/kg intravenously once a week, day 18
[22] = 7 mg/kg intravenously once a week, day 21
[23] = 7 mg/kg intravenously once a week, day 24
[24] = 14 mg/kg intravenously once a week, day 0
[25] = 14 mg/kg intravenously once a week, day 3
[26] = 14 mg/kg intravenously once a week, day 6
[27] = 14 mg/kg intravenously once a week, day 9
[28] = 14 mg/kg intravenously once a week, day 12
[29] = 14 mg/kg intravenously once a week, day 15
[30] = 14 mg/kg intravenously once a week, day 18
[31] = 14 mg/kg intravenously once a week, day 21
[32] = 14 mg/kg intravenously once a week, day 24

O=C1Nc2ccc([N+](=O)[O-])cc2C1=C1Nc2ccc(O)cc2C1=NO [AGM-130, (2′Z 3′E)-5′-hydroxy-5-nitro indirubin oxime]
Growth percent (HL-60(TB)): 3.67%
tumor volume reduction compared to control group ([1]; 3 mg/kg intravenously): about 49%
volume of tumor [1, 6]: 131.9 ± 8.6
volume of tumor [1, 7]: 167.5 ± 7.1
volume of tumor [1, 8]: 182.3 ± 4.2
volume of tumor [1, 9]: 253.3 ± 7.9
volume of tumor [1, 10]: 311.9 ± 2.3
volume of tumor [1, 11]: 337.5 ± 11.0
volume of tumor [1, 12]: 359.8 ± 15.6
volume of tumor [1, 13]: 408.2 ± 19.0
volume of tumor [1, 14]: 434.5 ± 18.3
tumor volume reduction compared to control group ([1]; 7 mg/kg intravenously): about 64%
volume of tumor [1, 15]: 129.1 ± 3.8
volume of tumor [1, 16]: 166.9 ± 7.4
volume of tumor [1, 17]: 190.0 ± 6.3
volume of tumor [1, 18]: 205.6 ± 11.4
volume of tumor [1, 19]: 235.6 ± 7.1
volume of tumor [1, 20]: 267.3 ± 9.4
volume of tumor [1, 21]: 288.1 ± 6.2
volume of tumor [1, 22]: 300.2 ± 15.4
volume of tumor [1, 23]: 310.1 ± 18.2
tumor volume reduction compared to control group ([1]; 14 mg/kg intravenously): about 69%
volume of tumor [1, 24]: 127.8 ± 2.4
volume of tumor [1, 25]: 156.8 ± 4.7
volume of tumor [1, 26]: 180.6 ± 5.0
volume of tumor [1, 27]: 202.9 ± 3.8
volume of tumor [1, 28]: 210.6 ± 5.1
volume of tumor [1, 29]: 234.7 ± 17.8
volume of tumor [1, 30]: 249.4 ± 15.3
volume of tumor [1, 31]: 264.8 ± 12.9
volume of tumor [1, 32]: 268.7 ± 8.7
cell cycle phases [2]: decreased G1 phase and increased G2/M phase
cyclin B1 expression (cyclin B1 expression): remarkably reduced
induction of apoptosis (cancer cell): mitochondria-dependent apoptosis
volume of tumor ([3]; FIG. 12): cannot be reduced significantly
volume of tumor ([3]; FIG. 13): cannot be reduced significantly
viability of cells [4]: efficiently decreases the viability
tumor volume reduction compared to control group ([5]; 3 mg/kg intravenously): about 31%
volume of tumor [5, 6]: 341.5 ± 14.4
volume of tumor [5, 7]: 474.6 ± 26.4
volume of tumor [5, 8]: 602.5 ± 44.1
volume of tumor [5, 9]: 693.1 ± 61.0
volume of tumor [5, 10]: 838.0 ± 79.9
volume of tumor [5, 11]: 996.9 ± 79.9
volume of tumor [5, 12]: 1217.5 ± 81.8
volume of tumor [5, 13]: 1398.0 ± 78.1
volume of tumor [5, 14]: 1871.4 ± 175.5
tumor volume reduction compared to control group ([5]; 7 mg/kg intravenously): about 47%
volume of tumor [5, 15]: 355.4 ± 10.7
volume of tumor [5, 16]: 451.9 ± 10.2
volume of tumor [5, 17]: 543.4 ± 10.9
volume of tumor [5, 18]: 615.5 ± 19.0
volume of tumor [5, 19]: 651.0 ± 47.1
volume of tumor [5, 20]: 677.9 ± 46.7
volume of tumor [5, 21]: 899.6 ± 59.6
volume of tumor [5, 22]: 1108.9 ± 88.1
volume of tumor [5, 23]: 1436.1 ± 84.8
tumor volume reduction compared to control group ([5]; 14 mg/kg intravenously): about 61%
volume of tumor [5, 24]: 342.1 ± 20.7
volume of tumor [5, 25]: 408.5 ± 10.3
volume of tumor [5, 26]: 470.8 ± 20.4
volume of tumor [5, 27]: 525.4 ± 35.6
volume of tumor [5, 28]: 535.3 ± 39.0
volume of tumor [5, 29]: 581.5 ± 44.8
volume of tumor [5, 30]: 696.1 ± 54.6
volume of tumor [5, 31]: 831.0 ± 75.1
volume of tumor [5, 32]: 1064.3 ± 39.8
weight of tumor ([5]; intravenously, FIG. 6): dose-dependently reduced
